# Measurements taken from US20140179655A1, “SOLID ORAL DOSAGE FORM OF TE[…]” (Solural Pharma ApS, priority 2012, published 2014).
# Columns and labels:
# [1] = Estimate of maximal amount of lymphatic absorbed TU; conditions: 25% of solubility x 120 mg/g x 3.5 g triglyceride/10 h; formulation of 600 mg fat
# Text: The maximal amount of lymphatic absorbed TU can be estimated from the solubility of Testosterone Undecanoate in triglyceride and the transported triglyceride (Int. J. Pharm., vol. 34, 175-178, 1986).
# [2] = cited from earlier work
smiles,measurement,setting,value
CCCCCCCCCCC(=O)O[C@H]1CC[C@H]2[C@@H]3CCC4=CC(=O)CC[C@]4(C)[C@H]3CC[C@]12C [Testosterone Undecanoate],maximal amount of lymphatic absorbed TU,[1],~100 mg
same,solubility in triglyceride,[2],120 mg/g
